From patent publication US8753875B2, “Compositions and means for diagnosing microbial infections” (priority 2007, dated 2014)
Like-named read-outs stand apart in the source and are kept apart here.

Legend:
Candida spp. = assay: Growth on Flexicult plate, susceptibility/resistance to the five antibiotics (FIG. 4, Table A); assay type: cell-based
Text: (§1) The kit was developed for urine culture in the primary health care setting. It is designed preferably as a nine cm Petri dish divided into six compartments: One larger compartment for quantitative analysis and five smaller compartments for susceptibility testing. The agar in each small compartment contains one of five antimicrobials (for Denmark and Scandinavia preferably: trimethoprim, sulfamethizole, ampicillin, nitrofurantoin and mecillinam (amdinocillin)) at a concentration adjusted to the breakpoint, such that growth in these compartments indicates resistance, and no growth indicates susceptibility. The Petri dish preferably has higher sides, approximately 2.48 cm, than the usual dish, i.e. ca. 1.48 cm. This allows a larger amount, maximum 100 ml, of urine to be poured onto the dish for inoculation.
(§2) Reading the susceptibility of the bacterial growth: Each bacterium (if more than one) is read individually: The growth in each of the antibiotic fields is compared with the growth on the control agar. […] If there is no growth (or substantially less than the control agar), then the bacterium is considered to be susceptible to the antibiotic. […] When nitrofurantoin and mecillinam are used as antibiotics, a few single colonies may be seen of the same type as the bacterium on the control agar: These are not considered to be resistant mutants but “persisters,” i.e. if retested they will appear susceptible. This is commonly seen also by disc diffusion especially for mecillinam.

Citrobacter spp. = assay: as above; assay type: cell-based
Text: as §1, §2

E. coli [1] = assay: as above; assay type: cell-based
Text: as §1, §2

E. faecalis [2] = assay: as above; assay type: cell-based
Text: as §1, §2

E. faecium [3] = assay: as above; assay type: cell-based
Text: as §1, §2

Enterobacter spp = assay: as above; assay type: cell-based
Text: as §1, §2

Klebsiella spp. = assay: as above; assay type: cell-based
Text: as §1, §2

Morganella spp. = assay: as above; assay type: cell-based
Text: as §1, §2

P. aureginosa = assay: as above; assay type: cell-based
Text: as §1, §2

P. vulgaris [4] = assay: as above; assay type: cell-based
Text: as §1, §2

Proteus mirabilis = assay: as above; assay type: cell-based
Text: as §1, §2

S. saprophyticus [5] = assay: as above; assay type: cell-based
Text: as §1, §2

E. coli [6] = assay: Growth of E. coli in antibiotic compartments of the platform (FIG. 3); assay type: cell-based; conditions: illustrated E. coli of FIG. 3
Text: The photos show growth of E. coli at different quantities of bacteria/ml urine.

[7] = Stability of the antimicrobial in the semi-solid media; assay type: physicochemical
Text: Stability of the antimicrobial in the semi-solid media may depend on the pH-value. The pH-value should preferably not exceed certain limits as this will influence the antimicrobial effect. The stability of Ampicillin and Mecillinam has been improved by adjusting the pH-value of the semi-solid media to 6.0.

E. coli [8] = test system: E. coli; parameters: key: Susceptible = S; Resistant = R; conditions: cited from earlier work
Citrobacter = test system: Citrobacter; parameters: key: Susceptible = S; Resistant = R; conditions: cited from earlier work
Klebsiella = test system: Klebsiella; parameters: key: Susceptible = S; Resistant = R; conditions: cited from earlier work
Enterobacter = test system: Enterobacter; parameters: key: Susceptible = S; Resistant = R; conditions: cited from earlier work
P. mirabilis = test system: P. mirabilis; parameters: key: Susceptible = S; Resistant = R; conditions: cited from earlier work
P. vulgaris [9] = test system: P. vulgaris; parameters: key: Susceptible = S; Resistant = R; conditions: cited from earlier work
Morganella = test system: Morganella; parameters: key: Susceptible = S; Resistant = R; conditions: cited from earlier work
S. saprophyticus [10] = test system: S. saprophyticus; parameters: key: Susceptible = S; Resistant = R; conditions: cited from earlier work
E. faecalis [11] = test system: E. faecalis; parameters: key: Susceptible = S; Resistant = R; conditions: cited from earlier work
E. faecium [12] = test system: E. faecium; parameters: key: Susceptible = S; Resistant = R; conditions: cited from earlier work
S. agalactiae = test system: S. agalactiae; parameters: key: Susceptible = S; Resistant = R; conditions: cited from earlier work
Pseud. Aeruginosa = test system: Pseud. Aeruginosa; parameters: key: Susceptible = S; Resistant = R; conditions: cited from earlier work
Candida sp. = test system: Candida sp.; parameters: key: Susceptible = S; Resistant = R; conditions: cited from earlier work
E. coli [13] = conditions: cited from earlier work
E. coli [14] = conditions: 1142 E. coli outpatient urinary isolates, USA and Canada; cited from earlier work

Structure (SMILES): CC1(C)S[C@@H]2[C@H](/N=C/N3CCCCCC3)C(=O)N2[C@H]1C(=O)O [Mecillinam, 6-Amidinopenicillanic acid derivatives; amdinocillin: 46-[[(hexahydro-1H-azepin-1-yl)methylene]amino]-3,3-dimethyl-7-oxo-, (2S,5R,6R)--Thia-1-azabicyclo[3.2.0]heptane-2-carboxylic acid]
- Susceptibility = S or Resistance = R (Candida spp.): R
- Susceptibility = S or Resistance = R (Citrobacter spp.): S
- Susceptibility = S or Resistance = R (E. coli [1]): S
- Susceptibility = S or Resistance = R (E. faecalis [2]): S
- Susceptibility = S or Resistance = R (E. faecium [3]): S
- Susceptibility = S or Resistance = R (Enterobacter spp): R
- Susceptibility = S or Resistance = R (Klebsiella spp.): S
- Susceptibility = S or Resistance = R (Morganella spp.): R
- Susceptibility = S or Resistance = R (P. aureginosa): R
- Susceptibility = S or Resistance = R (P. vulgaris [4]): R
- Susceptibility = S or Resistance = R (Proteus mirabilis): R
- Susceptibility = S or Resistance = R (S. saprophyticus [5]): S
- resistant or susceptible (growth in antibiotic compartment) (E. coli [6]): susceptible
- stability in the semi-solid media ([7]; pH-value of the semi-solid media adjusted to 6.0): improved
- Normal susceptibility/resistance (E. coli [8]): S
- Normal susceptibility/resistance (Citrobacter): S
- Normal susceptibility/resistance (Klebsiella): S
- Normal susceptibility/resistance (Enterobacter): S
- Normal susceptibility/resistance (P. mirabilis): S/R
- Normal susceptibility/resistance (P. vulgaris [9]): R
- Normal susceptibility/resistance (Morganella): R
- Normal susceptibility/resistance (S. saprophyticus [10]): S/R
- Normal susceptibility/resistance (E. faecalis [11]): R
- Normal susceptibility/resistance (E. faecium [12]): R
- Normal susceptibility/resistance (S. agalactiae): R
- Normal susceptibility/resistance (Pseud. Aeruginosa): R
- Normal susceptibility/resistance (Candida sp.): R
- Antimicrobial resistance of E. coli (resistance in percent) (E. coli [13]; Austria, n 126): 1.6%
- Antimicrobial resistance of E. coli (resistance in percent) (E. coli [13]; Belgium, n 137): 1.5%
- Antimicrobial resistance of E. coli (resistance in percent) (E. coli [13]; Canada, n 166): 1.2%
- Antimicrobial resistance of E. coli (resistance in percent) (E. coli [13]; Denmark, n 85): 1.2%
- Antimicrobial resistance of E. coli (resistance in percent) (E. coli [13]; Finland, n 182): 0.5%
- Antimicrobial resistance of E. coli (resistance in percent) (E. coli [13]; France, n 199): 1.5%
- Antimicrobial resistance of E. coli (resistance in percent) (E. coli [13]; Germany, n 138): 2.2%
- Antimicrobial resistance of E. coli (resistance in percent) (E. coli [13]; Greece, n 132): 0.8%
- Antimicrobial resistance of E. coli (resistance in percent) (E. coli [13]; Ireland, n 154): 0.6%
- Antimicrobial resistance of E. coli (resistance in percent) (E. coli [13]; Luxembourg, n 24): 0%
- Antimicrobial resistance of E. coli (resistance in percent) (E. coli [13]; Norway, n 168): 0%
- Antimicrobial resistance of E. coli (resistance in percent) (E. coli [13]; Portugal, n 86): 2.3%
- Antimicrobial resistance of E. coli (resistance in percent) (E. coli [13]; Spain, n 191): 1.0%
- Antimicrobial resistance of E. coli (resistance in percent) (E. coli [13]; Sweden, n 193): 1.6%
- Antimicrobial resistance of E. coli (resistance in percent) (E. coli [13]; Switzerland, n 122): 0%
- Antimicrobial resistance of E. coli (resistance in percent) (E. coli [13]; The Netherlands, n 195): 1.5%
- Antimicrobial resistance of E. coli (resistance in percent) (E. coli [13]; Total, n 2478): 1.2%
- Antimicrobial resistance of E. coli (resistance in percent) (E. coli [13]; United Kingdom, n 180): 1.7%

Structure (SMILES): CC1(C)SC2C(NC(=O)C(N)c3ccccc3)C(=O)N2C1C(=O)O (stereo not shown) [Ampicillin, 7-(2-amino-2-phenyl-acetyl)amino-3,3-dimethyl-6-oxo-2-thia-5-azabicyclo[3.2.0]heptane-4-carboxylic acid]
- Susceptibility = S or Resistance = R (Candida spp.): R
- Susceptibility = S or Resistance = R (Citrobacter spp.): R
- Susceptibility = S or Resistance = R (E. coli [1]): R
- Susceptibility = S or Resistance = R (E. faecalis [2]): S
- Susceptibility = S or Resistance = R (E. faecium [3]): S
- Susceptibility = S or Resistance = R (Enterobacter spp): R
- Susceptibility = S or Resistance = R (Klebsiella spp.): R
- Susceptibility = S or Resistance = R (Morganella spp.): R
- Susceptibility = S or Resistance = R (P. aureginosa): R
- Susceptibility = S or Resistance = R (P. vulgaris [4]): R/S
- Susceptibility = S or Resistance = R (Proteus mirabilis): S
- Susceptibility = S or Resistance = R (S. saprophyticus [5]): S
- resistant or susceptible (growth in antibiotic compartment) (E. coli [6]): resistant
- stability in the semi-solid media [7]: improved
- Normal susceptibility/resistance (E. coli [8]): S
- Normal susceptibility/resistance (Citrobacter): R
- Normal susceptibility/resistance (Klebsiella): R
- Normal susceptibility/resistance (Enterobacter): R
- Normal susceptibility/resistance (P. mirabilis): S
- Normal susceptibility/resistance (P. vulgaris [9]): R
- Normal susceptibility/resistance (Morganella): R
- Normal susceptibility/resistance (S. saprophyticus [10]): S
- Normal susceptibility/resistance (E. faecalis [11]): S
- Normal susceptibility/resistance (E. faecium [12]): S
- Normal susceptibility/resistance (S. agalactiae): S
- Normal susceptibility/resistance (Pseud. Aeruginosa): R
- Normal susceptibility/resistance (Candida sp.): R
- Antimicrobial resistance of E. coli (resistance in percent) (E. coli [13]; Austria, n 126): 17.5%
- Antimicrobial resistance of E. coli (resistance in percent) (E. coli [13]; Belgium, n 137): 30.7%
- Antimicrobial resistance of E. coli (resistance in percent) (E. coli [13]; Canada, n 166): 29.5%
- Antimicrobial resistance of E. coli (resistance in percent) (E. coli [13]; Denmark, n 85): 22.4%
- Antimicrobial resistance of E. coli (resistance in percent) (E. coli [13]; Finland, n 182): 19.8%
- Antimicrobial resistance of E. coli (resistance in percent) (E. coli [13]; France, n 199): 27.6%
- Antimicrobial resistance of E. coli (resistance in percent) (E. coli [13]; Germany, n 138): 29.0%
- Antimicrobial resistance of E. coli (resistance in percent) (E. coli [13]; Greece, n 132): 22.0%
- Antimicrobial resistance of E. coli (resistance in percent) (E. coli [13]; Ireland, n 154): 44.8%
- Antimicrobial resistance of E. coli (resistance in percent) (E. coli [13]; Luxembourg, n 24): 41.7%
- Antimicrobial resistance of E. coli (resistance in percent) (E. coli [13]; Norway, n 168): 23.8%
- Antimicrobial resistance of E. coli (resistance in percent) (E. coli [13]; Portugal, n 86): 45.3%
- Antimicrobial resistance of E. coli (resistance in percent) (E. coli [13]; Spain, n 191): 53.9%
- Antimicrobial resistance of E. coli (resistance in percent) (E. coli [13]; Sweden, n 193): 15.5%
- Antimicrobial resistance of E. coli (resistance in percent) (E. coli [13]; Switzerland, n 122): 27.0%
- Antimicrobial resistance of E. coli (resistance in percent) (E. coli [13]; The Netherlands, n 195): 28.7%
- Antimicrobial resistance of E. coli (resistance in percent) (E. coli [13]; Total, n 2478): 29.8%
- Antimicrobial resistance of E. coli (resistance in percent) (E. coli [13]; United Kingdom, n 180): 37.2%
- Overall resistance in E. coli (E. coli [14]): 37.7%
